In brackets after ≈: the same amount, converted by molar mass. Where two headings read alike, the source gives them in different places.
Legend:
[1] = system: Multidrug-Resistant (MDR) E. faecium; assay: microbe, parasite or virus in culture; conditions: 24 h; for MIC: Enterococcus faecium
Description: (§1) We further evaluated analogue 12 against multidrug-resistant (MDR) strains of S. aureus (acquired from the NARSA collection) and MDR E. faecium (acquired from International Health Management Associates, IHMA, Europe Sarl), comparing its activity to various classes of clinically used antibiotics (Table ).
(§2) MICs were performed as previously reported 4. For MIC testing all peptides were dissolved in DMSO.
(§3) Bacterial cultures were grown overnight on Mueller-Hinton Agar (MHA) plates and adjusted to a final inoculum of 10^5 – 10^6 CFU/mL. 100 µl of ino culum in Meuller -Hinton broth (MHB) was mixed with equal volume of peptides (dissolved in MHB) at 2x their concentration in a 96 well plate . For daptomycin MIC determination, the same protocol was followed with the addition of 50 mg/L calcium chloride to the medium. MIC values were determined in the media contain ing polysorbate 80 (0.002%, v/v) to prevent non -specific adsorption of the peptides to plastic surfaces. The final peptides concentrations ranged from 0.0625 – 32 µg/mL. The 96 well plates were then incubated at 37 °C for 24 h. All the experiments were performed in two independent duplicates and the MIC was determined as the lowest concentration in which no visible growth was observed.
(§4) Antibiotics MIC break points ( µg/mL)
(§5) Table. S4: Susceptibility cut-off values (MIC breakpoints) for various clinical antibiotics. […]

[2] = system: Multidrug-Resistant (MDR) S. aureus; assay: microbe, parasite or virus in culture; conditions: 24 h; for MIC: Staphylococcus aureus
Description: as §1, §2, §3, §4, §5

MRSA ATCC 33591 [3] = assay: Time-kill kinetics; type: cell-based, Staphylococcus aureus; conditions: 5 μg/mL, MHB with 0.002% polysorbate 80, 37 °C, two independent experiments in duplicate
Description: Early-stage time-kill kinetics for analogue 12 against MRSA ATCC 33591 were performed using vancomycin as a control, following the protocol described in Section VIII, Supporting Information.
3 Time-kill kinetics of Novltex analogue 12 and clinical antibiotic (vancomycin) against MRSA 33591. […] Results are the mean ± SD of two independent experiments performed in duplicate.
as §2, §3, §4
Table. […]

MRSA ATCC 33591 [4] = assay: microbe, parasite or virus in culture; type: cell-based, Staphylococcus aureus; conditions: Staphylococcus aureus, 24 h, read-out: MIC against MRSA ATCC 33591
Description: as §2
as §3, with “observed. […]” for “observed.”

[5] = Lipid II binding, spot-on-lawn assays on S. aureus ATCC 33591; design: species or system Staphylococcus aureus; conditions: lipid II (300 μM, 2 μL) at the edge of the antibiotic halo, overnight 37 °C, duplicates
Excerpt: 6 Spot-on-lawn assays to evaluate binding of Lipid II with analogue 12 on S. aureus ATCC 33591. (A) Analogue 12 was premixed with increasing ratios of lipid II (0.5 to 4 equiv) and spotted onto a seeded lawn of S. aureus 33591. Lipid II and analogue 12 were also spotted independently. The position of the analogue 12–lipid II mixture is marked in red. (B) Daptomycin was used as a negative control. Asterisks denote the positions of analogue 12 (black), lipid II (blue), and daptomycin (green) additions.
Analogue 12 was premixed with increasing ratios of lipid II (0.5 to 4 equiv) for 10 min prior to spotting onto agar plates seeded with a lawn of S. aureus ATCC 33591 and incubated overnight.
XII. Lipid II binding determination of analogue 12
Previously reported methods were used to determine the lipid II binding of analogue 126,7. The lipid II used in this study was prepared by chemical synthesis and its preparation and purification has been […]
A: An overnight culture of S. aureus ATCC 33591 was added to LB agar (45 °C) at a final concentration of 0.1% (vol/vol) and pour-plated into 90 mm petri dishes. Binding of 12 to purified lipid II was assessed using a spot-on-lawn assay. Premixed solutions (5 µL) containing analogue 12 (8 µg) with varying concentration of lipid II were spotted onto the agar, alongside individual controls of 12 and lipid II.
After drying, plates were incubated overnight at 37 °C. This assay was performed in duplicates.
B: To assess the interaction between analogue 12 and lipid II, a culture of S. aureus ATCC 33591 was grown overnight in LB broth and inoculated into LB agar at a final concentration of 1% (v/v) at 45°C.
This mixture was evenly distributed into 90mm petri dishes. Antibiotic inhibition haloes were previously determined by spotting analogue 12 and daptomycin (5 μL,8 µg/mL) onto agar plates and measuring the diameter of the halo after overnight incubation at 37 °C . The binding affinity of analogue 12 and lipid II was later examined by applying purified lipid II (300 μM, 2 μL) to the edge of the antibiotic halo. Analogue 12 and Daptomycin were applied to the inoculated agar plate at a spaced distance, once the antimicrobial solution drops had dried, lipid II was spotted on the edge of the inhibition halo. The plates were then incubated overnight at 37 °C. […]

SMILES | MIC ([1]; read-out: MIC, Enterococcus faecium 1563254) | MIC ([1]; read-out: MIC, Enterococcus faecium 1581582) | MIC ([1]; read-out: MIC, Enterococcus faecium 1766686) | MIC ([2]; read-out: MIC, Staphylococcus aureus NR 45914) | MIC ([2]; read-out: MIC, Staphylococcus aureus NR 45926) | MIC ([2]; read-out: MIC, Staphylococcus aureus NR 45930) | MIC ([2]; read-out: MIC, Staphylococcus aureus NR 46062) | time to similar bacterial killing (MRSA ATCC 33591 [3]) | MIC (MRSA ATCC 33591 [4]) | halo distortion on addition of lipid II [5] | MIC, Enterococcus faecium 1563254 ([1]; MDR clinical isolate 1563254, MHB, 0.002% polysorbate 80, 37 °C, daptomycin with 50 mg/L calcium chloride) | MIC, Enterococcus faecium 1581582 ([1]; MDR clinical isolate 1581582, MHB, 0.002% polysorbate 80, 37 °C, daptomycin with 50 mg/L calcium chloride) | MIC, Enterococcus faecium 1766686 ([1]; MDR clinical isolate 1766686, MHB, 0.002% polysorbate 80, 37 °C, daptomycin with 50 mg/L calcium chloride) | MIC, Staphylococcus aureus NR 45914 ([2]; MDR strain NR 45914, MHB, 0.002% polysorbate 80, 37 °C, daptomycin with 50 mg/L calcium chloride) | MIC, Staphylococcus aureus NR 45926 ([2]; MDR strain NR 45926, MHB, 0.002% polysorbate 80, 37 °C, daptomycin with 50 mg/L calcium chloride) | MIC, Staphylococcus aureus NR 45930 ([2]; MDR strain NR 45930, MHB, 0.002% polysorbate 80, 37 °C, daptomycin with 50 mg/L calcium chloride) | MIC, Staphylococcus aureus NR 46062 ([2]; MDR strain NR 46062, MHB, 0.002% polysorbate 80, 37 °C, daptomycin with 50 mg/L calcium chloride)
CN[C@H](CC(C)C)C(=O)N[C@H]1C(=O)N[C@@H](CC(N)=O)C(=O)N[C@H]2C(=O)N[C@H]3C(=O)N[C@H](C(=O)N[C@H](C(=O)O)c4cc(O)cc(O)c4-c4cc3ccc4O)[C@H](O)c3ccc(c(Cl)c3)Oc3cc2cc(c3O[C@@H]2O[C@H](CO)[C@@H](O)[C@H](O)[C@H]2O[C@H]2C[C@](C)(N)[C@H](O)[C@H](C)O2)Oc2ccc(cc2Cl)[C@H]1O [Vancomycin] | > 32 µg/mL | > 32 µg/mL | > 32 µg/mL | 1 µg/mL (≈ 0.69 µM) | 0.5 µg/mL (≈ 0.345 µM) | 1 µg/mL (≈ 0.69 µM) | 2 µg/mL (≈ 1.38 µM) | 24 h | 0.5 to 1 µg/mL (≈ 0.345 to 0.69 µM) | – | – | – | – | – | – | – | –
CCCCCCCCCC(=O)N[C@@H](Cc1c[nH]c2ccccc12)C(=O)N[C@H](CC(N)=O)C(=O)N[C@@H](CC(=O)O)C(=O)N[C@@H]1C(=O)NCC(=O)N[C@@H](CCCN)C(=O)N[C@@H](CC(=O)O)C(=O)N[C@H](C)C(=O)N[C@@H](CC(=O)O)C(=O)NCC(=O)N[C@H](CO)C(=O)N[C@@H]([C@H](C)CC(=O)O)C(=O)N[C@@H](CC(=O)c2ccccc2N)C(=O)O[C@@H]1C [Daptomycin] | – | – | – | – | – | – | – | – | – | maintained a distinct circular inhibition zone | >32 µg/mL | >32 µg/mL | >32 µg/mL | 2 µg/mL (≈ 1.23 µM) | 4 µg/mL (≈ 2.47 µM) | 2 µg/mL (≈ 1.23 µM) | 2 µg/mL (≈ 1.23 µM)

From publication PMC12481569, “Novltex: A New Class of Antibiotics with Potent Activity against Multidrug-Resistant Bacterial Pathogens–Design, Synthesis, and Biological Evaluation” (Journal of Medicinal Chemistry, 2025)
